Test results taken from US6465614B1, “High-affinity response-selective C-terminal analogs of C5a anaphylatoxin” (priority 1994, dated 2002).
Read-outs that look alike come from different tables or passages of the source. Square brackets hold non-standard residues; d marks the D form. Ends that are not written are not given here. Peptide text beside a SMILES is read from it.

T1: human neutrophils (PMN) (Homo sapiens, UniProt P21730)
T1 sequence (P21730 1-350): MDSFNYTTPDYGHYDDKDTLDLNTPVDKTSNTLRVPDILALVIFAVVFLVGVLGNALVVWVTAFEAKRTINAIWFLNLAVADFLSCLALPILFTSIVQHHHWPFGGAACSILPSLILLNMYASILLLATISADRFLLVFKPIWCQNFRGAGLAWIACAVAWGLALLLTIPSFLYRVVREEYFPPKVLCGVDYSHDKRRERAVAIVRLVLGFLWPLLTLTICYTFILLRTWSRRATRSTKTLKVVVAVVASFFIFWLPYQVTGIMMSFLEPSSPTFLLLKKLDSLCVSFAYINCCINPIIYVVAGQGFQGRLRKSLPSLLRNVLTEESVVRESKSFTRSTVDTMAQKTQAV

T2: human fetal artery (Homo sapiens, UniProt P21730)
T2 sequence (P21730 1-350): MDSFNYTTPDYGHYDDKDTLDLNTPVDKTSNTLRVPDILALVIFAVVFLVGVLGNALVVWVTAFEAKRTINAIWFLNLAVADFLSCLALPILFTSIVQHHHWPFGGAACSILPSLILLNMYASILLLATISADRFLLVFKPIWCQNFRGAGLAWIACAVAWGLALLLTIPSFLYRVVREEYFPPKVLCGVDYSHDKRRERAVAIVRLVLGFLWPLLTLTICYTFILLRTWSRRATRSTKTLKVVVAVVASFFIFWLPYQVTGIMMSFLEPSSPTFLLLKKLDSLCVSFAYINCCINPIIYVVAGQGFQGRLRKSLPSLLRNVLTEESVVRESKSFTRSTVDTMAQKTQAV


Assays:
guinea-pig platelets = assay: Guinea-pig platelet aggregation assay; format: cell-based; settings: for Platelet Aggreg (threshold concentration producing visible platelet aggregation): guinea-pig platelets, threshold response
Description: This assay was performed on platelets obtained from the arterial blood of anesthetized male Hartley guinea pigs according to previously published methods (Ember et al., 1992, supra). Briefly, platelet-rich plasma was prepared and diluted to 3×10^8 platelets/ml in 0.39% sodium citrate solution. Peptide samples were diluted in a stepwise fashion in 1.5-fold dilutions and placed in 96-well microplates. A […] peptide sample, […] of platelet-rich plasma, and one 3 mm glass bead were placed in each well. The plates were shaken horizontally at 100 rpm for 5 min at 37° C. Platelet aggregation was evaluated visually in an inverted microscope at 40× magnification. The greatest dilution of peptide producing visible aggregation was scored as the threshold concentration for activity. Natural C5a and C3a were included as internal standards. At least three independent duplicate determinations were conducted for every peptide.

human neutrophils (PMN) [1] = biological target: T1, human neutrophils (PMN); format: cell-based
Description: Neutrophil polarization assays were conducted as described by Ember et al., 1992, supra. Human neutrophils (PMN) were prepared according to the procedure described by Dahinden et al. (1979), J. Immunol., 130: 857-862. The assay for measuring the effect of C5a analogs on PMN polarization was described by Haston & Shields (1985), J. Immunol. Methods, 81: 229-237. Briefly, PMN (1×10^6 cells/ml) were suspended in 10 mM 3- (N-morpholino) propane sulfonic acid (Sigma Chemical Co.) containing EBSS. […] After 10 minutes of incubation at room temperature, the cells were washed twice and stored until microscopic examination. Cells deviating from the typical spherical shape were visually scored as polarized. Results are expressed as percent of polarized cells per total cells counted (300 cells counted/sample).

human neutrophils (PMN) [2] = biological target: T1, human neutrophils (PMN); format: cell-based; remark: listed apart in the source
Description: The release of glucuronidase from human neutrophils was determined as described by Schroder et al. (1987), J. Immunol., 139: 3474-3483. Briefly, human neutrophils were pretreated with cytochalasin B (5 μg/ml, 10 min, 37° C.). The cells (10^6) were incubated in the presence of stimulants for 60 minutes at 37° C. in a final volume of 200 μl and then centrifuged. The supernatant was collected and 50 μl were incubated with 50 μl of 0.01 M P-nitrophenyl-β-D-glucuronide (in 0.1 M sodium acetate at pH 4 for 18 h) as triplicate determinations in 96-well microtiter plates (Corning). The reaction was stopped by addition of 100 μl of 0.4 M gly buffer at pH 10. The reaction developed color that was read at 405 nm in a Titertec Multiscan (MCC/340) ELISA reader. The β-glucuronidase released was expressed as the percentage of total enzyme in the cell that could be released by addition of 0.2% Triton X-100 (Pierce).

human fetal artery = biological target: T2, human fetal artery; assay: Smooth muscle contraction of human fetal artery (spasmogenic assay); format: cell-based
Description: Tissue strips were suspended in 2 ml organ baths, containing physiological salt solution (Krebs-Ringers solution: 118 mM NaCl, 4.7 mM KCl, 2.5 mM CaCl2, 25 mM NaHCO3, 1.2 mM KH2PO4, 1.2 mM MgSO4, 10 mM Glucose) maintained at 37° C., pH 7.4 and continuously aerated with a […] mixture. Each tissue preparation was equilibrated for 1 hr prior to testing with peptides. All drugs were kept on ice during the procedure and isometric tensions were measured using strain-gauge transducers (Grass FT-03) with a computerized chart recording system (MacLab/8). After the contraction to each peptide reached a plateau, histamine (10 μM) was added to obtain the maximum tissue response. Because tachyphylaxis occurs rapidly to single doses of C5a or peptides, cumulative dose-response curves could not be obtained. Instead, the dose-response profile was compiled from multiple strips from each tissue. After exposing each strip to a single concentration of the peptide followed by supramaximal histamine, the response was expressed as a percentage of the maximal contraction to histamine. Full dose-response curves for C5a (human recombinant C5a; Sigma) or individual peptides were performed in each experiment for each tissue and the EC50 values (i.e., concentration of peptide producing 50t of the maximal response to each peptide) obtained by probit analysis. pD2 transforms [−log EC50 (M)] were calculated for each dose-response curve, and means ±SE obtained for each peptide.
Human umbilical cords were obtained from the Mater Misericordiae Hospital, South Brisbane, Queensland within minutes of delivery. The mid-section of the umbilical cord was cut from the placenta, placed in physiological salt solution and stored at 5° C. for up to 24 hrs. […] The fetal arteries were dissected out and cut into longitudinal strips. The intimal surface of the arteries was rubbed with a cotton bud to remove the endothelium. Strips approximately 2 cm×3 mm were suspended in organ baths under 20 mN of resting tension. Arterial strips were tested repeatedly with peptides following a 60 min drug-free period of rest between assays (Taylor et al. (1994), Inflammation, in press).

serum carboxypeptidases = assay: Stability toward serum carboxypeptidases (incubation in normal human serum, HPLC); format: in vitro ADME; settings: 37° C., 1 h
Description: FIG. 10. HPLC profiles of decapeptide analogs. FIG. 10A: HPLC of […] (peptide/Sequence I.D. No. 2); a=purified peptide; b=des-Arg peptide ([…]; Sequence I.D. No. 24); c=des-Arg peptide in saline, no incubation; d=des-Arg peptide in saline with incubation for 1 h at 37° C.; e=des-Arg peptide in normal human serum with incubation for 1 h at 37° C. FIG. 10B: HPLC of […]aR (Sequence I.D. No. 10); a=purified peptide; b=peptide in saline, no incubation; c=peptide in saline with incubation for 1 h at 37° C.; d=peptide in normal human serum with incubation for 1 h at 37° C. Solvent system 1: 70 mM triethylamine/phosphoric acid buffer, pH-2.3. Solvent system 2: 60% acetonitrile in the Solvent 1 buffer. Linear gradient of 30-50% solvent 2 at.1%/min, slope=1 ml/min, absorbance monitored at 214 nm.
Both peptides were incubated in normal human serum at 37° C. for 1 h and thereafter reanalyzed on HPLC.

Molecule | Platelet Aggreg (threshold concentration producing visible platelet aggregation) (guinea-pig platelets) [µM] | EC50 (human neutrophils (PMN) [1]) [µM] | also measured
CSCC[C@H](NC(=O)[C@H](CC(=O)O)NC(=O)[C@H](CCCCN)NC(=O)[C@H](Cc1ccccc1)NC(=O)[C@H](CO)NC(=O)[C@@H](N)Cc1ccc(O)cc1)C(=O)N[C@@H](CCC(N)=O)C(=O)N[C@@H](CC(C)C)C(=O)N[C@@H](C)C(=O)N[C@@H](CCCNC(=N)N)C(=O)O [peptide 7] | 34 | 48 | EC50 (human neutrophils (PMN) [2]): 1000 µM
CSCC[C@H](NC(=O)[C@H](CC(=O)O)NC(=O)[C@H](CCCCN)NC(=O)[C@H](Cc1ccccc1)NC(=O)[C@H](CO)NC(=O)[C@@H](N)Cc1ccc(O)cc1)C(=O)N[C@@H](CCC(N)=O)C(=O)N[C@@H](CC(C)C)C(=O)N[C@H](C)C(=O)N[C@@H](CCCNC(=N)N)C(=O)O [peptide 8] | 20 | 1.2 | EC50 (human neutrophils (PMN) [2]): 32 µM
CC(C)C[C@H](NC(=O)[C@@H]1CCCN1C(=O)[C@H](CS)NC(=O)[C@H](CC(=O)O)NC(=O)[C@H](CCCCN)NC(=O)[C@H](Cc1ccccc1)NC(=O)[C@H](CO)NC(=O)[C@@H](N)Cc1ccc(O)cc1)C(=O)N[C@@H](CS)C(=O)N[C@@H](CCCNC(=N)N)C(=O)O [peptide 17] (H-YSFKDCPLCR-OH; N-terminus assumed) | 4.1 | 224 | 
CC(C)C[C@@H]1NC(=O)[C@@H]2CCCN2C(=O)[C@@H](NC(=O)[C@H](CC(=O)O)NC(=O)[C@H](CCCCN)NC(=O)[C@H](Cc2ccccc2)NC(=O)[C@H](CO)NC(=O)[C@@H](N)Cc2ccc(O)cc2)CSSC[C@@H](C(=O)N[C@@H](CCCNC(=N)N)C(=O)O)NC1=O [peptide 18] (HELM PEPTIDE1{Y.S.F.K.D.C.P.L.C.R}$PEPTIDE1,PEPTIDE1,6:R3-9:R3$$$V2.0) | >410 |  | 
CSCC[C@H](NC(=O)CNC(=O)[C@H](CCCCN)NC(=O)[C@H](Cc1ccccc1)NC(=O)[C@H](CO)NC(=O)[C@@H](N)Cc1ccc(O)cc1)C(=O)N[C@@H](CC(C)C)C(=O)N[C@@H](CC(C)C)C(=O)NCC(=O)N[C@H](CCCNC(=N)N)C(=O)O [peptide 22] (HELM PEPTIDE1{Y.S.F.K.G.M.L.L.G.[dR]}$$$$V2.0; N-terminus and C-terminus assumed) |  |  | agonist character compared to natural C5a in spasmogenic assays (human fetal artery; in words): full agonist of diminished potency; antagonist activity against C5a (human fetal artery; tested at concentrations below those causing contraction or aggregation): devoid of any antagonistic activity
ISFKDMQLGR-OH [peptide 1] | 86.3 |  | 
YSFKDAPLGR-OH [peptide 15] | 7.4 |  | 
YSFKDCPLGR-OH [peptide 16] | 2.3 | 19.5 | 
YSFKDMPAGR-OH [peptide 11] | 101 | 215 | 
YSFKDMPLGR-OH [peptide 5] | 6.3 |  | increase in potency in spasmogenic and aggregatory activities relative to peptide 2 (human fetal artery; across spasmogenic and platelet aggregation assays (Tables 2 and 3)): 4- to 10 fold; log potency ratio at the EC50 level compared to C5a (human fetal artery; fetal artery): 2.01±0.12; % of C5a potency (human fetal artery; fetal artery, from log potency ratio at EC50 level): 1%
YSFKDMPPGR-OH [peptide 6] | 80 | 50 | EC50 (human neutrophils (PMN) [2]): 700 µM
YSFKDMQIGR [peptide 9] | 150 |  | 
YSFKDMQLGR [peptide 2] |  |  | cleavage of the C-terminal Arg (serum carboxypeptidases): significant cleavage
YSFKDMQLPR-OH [peptide 3] | 225 | 500 | 
YSFKDMQPGR-OH [peptide 4] | 500 |  | 
YSFKGLLLGR-OH [peptide 21] | 21 |  | 
YSFKGMLLGR-OH [peptide 20] | 10.5 |  | potency compared with peptide 2 in human fetal artery (human fetal artery; in words): about two times more potent; potency compared with peptide 2 in guinea-pig platelet assay (guinea-pig platelets; in words): about two times more potent
YSFKGMPLGR-OH [peptide 23] | 6.3 | 2 | EC50 (human neutrophils (PMN) [2]): 49.6 µM
YSFKPMQLaR (YSFKPMQL[dA]R) [peptide 24] |  |  | potency relative to natural C5a for elicitation of a spasmogenic response (Class 1) (human fetal artery; smooth muscle contraction assay, percent of natural/full C5a potency): 20-30%
C5a: C5a anaphylatoxin, 74-residue human glycoprotein; human recombinant C5a (Sigma) or natural C5a used as standard (protein, UniProt P01031 678-751, looked up, C5a anaphylatoxin, C5a anaphylatoxin, 74-residue human glycoprotein; human recombinant C5a (Sigma) or natural C5a used as standard) C5a anaphylatoxin: TLQKKIEEIAAKYKHSVVKKCCYDGACVNNDETCEQRAARISLGPRCIKAFTECCVVASQLRANISHKDMQLGR | 0.023 |  | EC50 (human fetal artery; human fetal artery contraction, mean EC50 from individual experiments): 0.018 µM; EC50 (human neutrophils (PMN) [1]; human neutrophils, read-out: PMN Polarization EC50): 0.0013 µM; EC50 (human neutrophils (PMN) [2]; human neutrophils, β-glucuronidase release, read-out: PMN Enzyme Release EC50): 0.0123 µM
